# Laboratory results: ChEMBL document CHEMBL1201862, “PubChem BioAssay data set” (2004)
# Calls of active or inactive are those of the source.
# Assays:
# [1] = biological target: T1, Heat shock factor protein 1 (Mus musculus, UniProt P38532); experiment: inhibition of MG132-induced HSE-luciferase signal, confirmation, cell-based, NIH3T3, luminescence, dose retest (AID 2382); format: functional;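 further: NIH3T3 fibroblasts with HSF1-driven luciferase reporter stressed by proteasome inhibitor MG132; luminescence from HSF1-driven luciferase expression after 8 hours of MG132 stress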
# T1 sequence (P38532 whole entry): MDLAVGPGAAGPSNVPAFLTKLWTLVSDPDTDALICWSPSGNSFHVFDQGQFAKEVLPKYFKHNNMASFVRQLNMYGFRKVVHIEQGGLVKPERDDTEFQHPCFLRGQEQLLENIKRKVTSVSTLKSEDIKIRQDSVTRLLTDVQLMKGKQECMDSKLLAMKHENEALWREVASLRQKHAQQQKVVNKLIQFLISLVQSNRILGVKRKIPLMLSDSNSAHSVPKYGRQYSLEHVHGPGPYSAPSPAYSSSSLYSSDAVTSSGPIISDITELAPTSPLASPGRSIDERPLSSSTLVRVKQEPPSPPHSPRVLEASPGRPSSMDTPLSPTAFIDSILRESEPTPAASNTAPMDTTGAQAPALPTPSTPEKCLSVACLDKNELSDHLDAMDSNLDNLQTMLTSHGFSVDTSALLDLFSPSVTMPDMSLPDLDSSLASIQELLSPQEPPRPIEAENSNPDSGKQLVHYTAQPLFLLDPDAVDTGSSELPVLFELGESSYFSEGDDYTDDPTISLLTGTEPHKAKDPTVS
# [2] = biological target: T2, Corticotropin-releasing factor receptor 2/Corticotropin-releasing factor-binding protein (Homo sapiens, UniProt P24387+Q13324); experiment: activators of CRF receptor 2 with binding protein – uHTS hits, confirmation (AID 602473); format: functional; details: read-out: EC50_Mean
# T2 sequence (Q13324 whole entry): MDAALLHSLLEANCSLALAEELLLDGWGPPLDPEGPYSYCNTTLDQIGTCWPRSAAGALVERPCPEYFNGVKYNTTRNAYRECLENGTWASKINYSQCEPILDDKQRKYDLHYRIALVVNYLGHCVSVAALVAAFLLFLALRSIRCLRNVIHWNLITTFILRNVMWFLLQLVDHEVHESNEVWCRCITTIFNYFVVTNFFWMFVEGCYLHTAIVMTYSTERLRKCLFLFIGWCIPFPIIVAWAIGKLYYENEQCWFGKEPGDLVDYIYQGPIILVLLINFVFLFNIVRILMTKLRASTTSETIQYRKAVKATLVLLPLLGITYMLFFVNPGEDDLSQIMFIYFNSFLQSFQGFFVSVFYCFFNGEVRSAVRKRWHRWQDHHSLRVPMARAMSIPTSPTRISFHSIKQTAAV
# T2 sequence (P24387 whole entry): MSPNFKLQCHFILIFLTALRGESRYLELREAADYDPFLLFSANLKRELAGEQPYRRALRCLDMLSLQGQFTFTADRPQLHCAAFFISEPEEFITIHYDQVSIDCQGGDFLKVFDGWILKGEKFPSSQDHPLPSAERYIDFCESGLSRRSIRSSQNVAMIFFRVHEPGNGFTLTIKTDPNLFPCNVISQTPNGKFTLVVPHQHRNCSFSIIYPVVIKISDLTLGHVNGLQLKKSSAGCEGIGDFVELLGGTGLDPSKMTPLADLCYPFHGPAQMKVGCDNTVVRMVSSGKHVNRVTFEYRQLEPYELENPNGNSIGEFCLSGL
# [3] = biological target: T2, Corticotropin-releasing factor receptor 2/Corticotropin-releasing factor-binding protein; experiment: Dose Response confirmation of uHTS hits for small molecule antagonists of the CRF-binding protein and CRF-R2 receptor complex.; format: functional; details: read-out: IC50_Mean
# [4] = Luminescence Cell-Based Dose Retest to Confirm Inhibitors of Cancer Stem Cells. [Related pubchem assays (depositor defined):AID2717, AID2721]; format: functional; details: Homo sapiens
# [5] = system: Streptococcus; experiment: Group A Streptococcus viability loss, dose response, counter-screen for streptokinase expression inhibitor project, luminescence, BacTiterGlo (AID 1915); format: functional, organism-based;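 further: potency for reduction of bacterial viability or growth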
# [6] = biological target: T3, Streptokinase A (Streptococcus pyogenes serotype M1, UniProt P10520); experiment: S. pyogenes streptokinase expression inhibitors, potency, dose response, plasminogen activation absorbance, OD405 (AID 1914); format: functional, Streptococcus pyogenes M1 GAS;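 further: secreted streptokinase activity via plasminogen activation per viability signal from cell pellet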
# T3 sequence (P10520 whole entry): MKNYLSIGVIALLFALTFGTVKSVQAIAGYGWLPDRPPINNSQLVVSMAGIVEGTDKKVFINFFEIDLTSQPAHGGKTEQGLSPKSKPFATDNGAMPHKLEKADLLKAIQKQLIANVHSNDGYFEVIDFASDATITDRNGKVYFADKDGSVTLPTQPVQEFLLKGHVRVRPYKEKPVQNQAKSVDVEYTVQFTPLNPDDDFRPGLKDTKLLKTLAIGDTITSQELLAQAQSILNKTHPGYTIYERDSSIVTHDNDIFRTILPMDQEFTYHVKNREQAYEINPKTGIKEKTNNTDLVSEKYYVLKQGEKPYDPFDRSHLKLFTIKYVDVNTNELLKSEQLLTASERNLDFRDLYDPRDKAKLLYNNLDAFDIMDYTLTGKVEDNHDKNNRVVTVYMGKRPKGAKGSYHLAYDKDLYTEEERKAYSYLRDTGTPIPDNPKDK
# [7] = system: Streptococcus sp. 'group A'; experiment: growth inhibition of control SK(-) GAS strain, dose response, counter-screen for streptokinase expression inhibitor project, luminescence, kanamycin, BacTiterGlo, confirmation (AID 1900); format: functional, organism-based
# [8] = biological target: FAD-linked sulfhydryl oxidase ALR (Homo sapiens, UniProt P55789); experiment: inhibitors of human ALR sulfhydryl oxidase, dose response, biochemical, H2O2 detection, luminescence, cherry-pick (AID 493248)
# FAD-linked sulfhydryl oxidase ALR, sequence (P55789 whole entry): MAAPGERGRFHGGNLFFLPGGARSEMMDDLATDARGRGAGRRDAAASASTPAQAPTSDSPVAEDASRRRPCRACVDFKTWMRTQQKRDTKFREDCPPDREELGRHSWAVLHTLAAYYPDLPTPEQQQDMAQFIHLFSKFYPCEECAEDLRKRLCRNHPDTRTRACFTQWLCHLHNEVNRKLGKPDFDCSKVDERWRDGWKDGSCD
# [9] = biological target: T4, Rac GTPase-activating protein 1 (Homo sapiens, UniProt Q9H0H5); experiment: MgcRacGAP GTPase-activating activity inhibitors, confirmation, biochemical, ADP Hunter fluorescence, primary and confirmatory (AID 624330); format: functional
# T4 sequence (Q9H0H5 whole entry): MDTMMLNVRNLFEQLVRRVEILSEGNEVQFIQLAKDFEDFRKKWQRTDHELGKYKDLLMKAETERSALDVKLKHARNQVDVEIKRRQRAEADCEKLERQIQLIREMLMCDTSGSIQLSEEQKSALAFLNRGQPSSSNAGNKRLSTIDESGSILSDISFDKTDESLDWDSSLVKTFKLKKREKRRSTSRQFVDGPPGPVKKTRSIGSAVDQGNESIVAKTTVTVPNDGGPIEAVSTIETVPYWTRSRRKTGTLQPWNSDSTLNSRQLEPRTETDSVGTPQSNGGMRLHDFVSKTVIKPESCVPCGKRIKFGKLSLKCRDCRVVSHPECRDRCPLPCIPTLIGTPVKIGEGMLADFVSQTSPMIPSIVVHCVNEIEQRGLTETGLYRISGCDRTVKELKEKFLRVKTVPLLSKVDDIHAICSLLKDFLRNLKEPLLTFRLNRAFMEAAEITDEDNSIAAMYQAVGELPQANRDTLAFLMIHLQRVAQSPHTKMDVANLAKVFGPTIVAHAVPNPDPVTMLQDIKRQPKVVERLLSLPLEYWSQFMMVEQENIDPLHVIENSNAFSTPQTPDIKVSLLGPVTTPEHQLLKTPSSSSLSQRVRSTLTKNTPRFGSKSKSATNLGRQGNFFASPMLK
# [10] = cytotoxicity toward NIH3T3 fibroblasts, dose response, counter-screen, cell-based, ATP luminescence, mouse fibroblasts (AID 2010); format: functional;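 further: cells exposed to compound for about 90 hours before reading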
# [11] = inhibitors of intracellular T. cruzi replication, confirmation, NIH3T3 host cells, beta-gal luminescence (AID 2044); format: functional, cell-based;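 further: intracellular parasites grown in NIH/3T3 mouse fibroblasts as host cells; luminescent beta-galactosidase reporter signal from transgenic T. cruzi replicating inside host cells; inhibitors lower the luminescence signal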
# [12] = system: INS1; experiment: beta cell apoptosis inhibitors, cytokine rescue, dose response, luminescence, retest (AID 449756); format: functional, cell-based; details: Rattus norvegicus;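 further: cell death triggered by IL-1 beta plus TNF-alpha plus IFN-gamma mixture; protective hits raise ATP signal compared with cytokine alone wells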
# [13] = Shn3 3'UTR reporter inhibitors, dose response, cell-based, Clone20 osteoblasts, firefly luciferase, cherry-picked (AID 624132); format: functional;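 further: firefly luciferase luminescence from reporter carrying the Shn3 3'UTR in osteoblasts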
# [14] = P. falciparum Dd2 growth inhibitors, dose response, SYBR Green, cherry-picked samples (AID 1159567); format: functional, cell-based
structure (smiles),measurement,setting,value
CC(C)(C)c1ccc(/C=C2\SC(=O)N(CCNC(=O)c3cccc(S(=O)(=O)N4CCOCC4)c3)C2=O)cc1,EC50,[1],2.43 µM (active)
CCOC(=O)C1CCCN(C2CC(=O)N(c3ccccc3)C2=O)C1 (centres undefined),EC50,[2],> 53 µM (inactive)
same,IC50,[3],> 47.1 µM (inactive)
FC(F)(F)c1cccc(Nc2ncnc3ccccc23)c1,AC50,[4],1.43 µM (active)
CN1C(=O)NC(c2ccccc2)(C(F)(F)F)S/C1=C(/C#N)c1nnc(N2CCOCC2)n1-c1ccccc1 (centres undefined),EC50,[5],> 150 µM (not active)
same,EC50,[6],> 150 µM (not active)
same,EC50,[7],> 150 µM (not active)
same,EC50,[2],> 53 µM (inactive)
same,IC50,[3],> 47.1 µM (inactive)
CC(C)C(=O)Nc1ccc(C(=O)N2CCN(C(=O)c3ccco3)CC2)cc1,EC50,[1],> 195 µM (not active)
CSCc1ccc(C(=O)NC(C)c2cnn(-c3ccccn3)c2C)o1 (centres undefined),AC50,[8],9.51 µM (active)
CN(C(=O)c1ccccc1C(=O)OCC(=O)Nc1ccc(S(N)(=O)=O)cc1)c1ccccc1,EC50,[1],> 195 µM (not active)
CCc1sc(C(=O)NCCc2ccc(S(N)(=O)=O)cc2)cc1Br,EC50,[2],> 53 µM (inactive)
same,IC50,[3],> 47.1 µM (inactive)
Cn1c(-c2ccccc2)cnc1NCc1ccc(-c2ccccc2)cc1,IC50,[9],78.1 µM (active)
same,AC50,[4],1.34 µM (active)
COc1ccc(C2NC(=O)C(C#N)=C(S)N2c2ccccc2)cc1OC (centres undefined),AC50,[8],< 0.014 µM (active)
CC1CCC(NC(=O)Nc2cccs2)CC1 (centres undefined),AC50,[8],1.18 µM (active)
Fc1ccc(N2CCN(Cc3ccccn3)CC2)cc1,AC50,[8],8.77 µM (active)
C/[N+]([O-])=C\C1C(=O)CC(C)(C)CC1=O,EC50,[1],> 195 µM (not active)
same,EC50,[2],> 53 µM (inactive)
same,IC50,[3],> 47.1 µM (inactive)
COC(=O)Nc1ccc(S(=O)(=O)N2CCC(C(=O)N(C)C3CCCCC3)CC2)cc1,AC50,[8],1.92 µM (active)
COc1ccc(-c2nc3ccc(C)cn3c2NCc2ccccc2)cc1SC1CCCCC1,EC50,[10],> 60 µM (not active)
same,EC50,[11],1.2 µM (active)
same,AC50,[12],2.61 µM (active)
CN(Cc1ccccc1)S(=O)(=O)c1nnc(NC(=O)c2ccc(F)cc2)s1,EC50,[2],> 53 µM (inactive)
same,IC50,[3],< 0.368 µM (active)
O=C1Nc2ccccc2N(O)N1c1cc(-c2cccc(Cl)c2)no1,AC50,[8],1.92 µM (active)
same,EC50,[2],6.32 µM (active)
same,IC50,[3],> 47.1 µM (inactive)
COc1ccc(NC2CCCN(C(=O)CCc3ccccc3F)C2)cc1 (centres undefined),AC50,[8],13.4 µM (active)
same,IC50,[9],65.4 µM (active)
COc1ccc(C(=O)Nc2ccc3c(c2)nc(CN2CCCC2)n3C)cc1,EC50,[1],> 195 µM (not active)
COC(=O)c1ccc(NC(=O)NC2CCCCC2)cc1,EC50,[1],> 195 µM (not active)
O=C(Cc1ccc(-n2cccc2)cc1)N1CCN(c2ccccc2F)CC1,EC50,[2],> 53 µM (inactive)
same,IC50,[3],> 47.1 µM (inactive)
Cc1ccc([N+](=O)[O-])cc1N(CC(=O)Nc1ccc(S(=O)(=O)Nc2cccc(C(F)(F)F)c2)cc1)S(C)(=O)=O,EC50,[10],> 60 µM (not active)
same,EC50,[11],1.86 µM (active)
same,AC50,[4],3.7 µM (active)
same,AC50,[12],2.56 µM (active)
Cc1ccnc(NC(=O)CS(=O)(=O)c2ccccc2)c1,EC50,[1],> 195 µM (not active)
NS(=O)(=O)c1ccc(CNC(=O)c2cnccn2)cc1,EC50,[1],> 195 µM (not active)
O=C(NNC(=O)c1ccccc1OCc1ccc(F)cc1)c1ccccc1O,EC50,[5],3.62 µM (active)
same,EC50,[7],3.68 µM (active)
same,AC50,[12],2.67 µM (active)
COc1ccccc1OCCCCOc1ccccc1C(C)=O,AC50,[12],12 µM (active)
Cc1ccsc1C(=O)NNC(=O)CCN1CCN(c2ccccc2)CC1,AC50,[8],4.88 µM (active)
Cc1ccc(NC2CCCN(C(=O)c3cc4ncccn4n3)C2)cc1C (centres undefined),AC50,[8],4.14 µM (active)
COc1ccc(NC(=O)N(C)C[C@H]2Oc3c(NS(=O)(=O)c4ccc(F)cc4)cccc3C(=O)N([C@H](C)CO)C[C@@H]2C)cc1,AC50,[12],> 260 µM (inactive)
C=C1CCN([C@@H](CC(C)C)C(=O)Nc2nc3ccc(Cl)cc3s2)S(=O)(=O)c2ccccc21,AC50,[4],5.19 µM (active)
COc1ccc(S(=O)(=O)N(CC(C)C)C2CCS(=O)(=O)C2)cc1OC (centres undefined),EC50,[2],> 53 µM (inactive)
same,IC50,[3],> 47.1 µM (inactive)
O=C(O)C1(Nc2ccccc2Cl)CCCC1,AC50,[13],29.5 µM (active)
COc1cc(/C=N/NC(=O)c2ccc(O)nn2)ccc1O,AC50,[8],1.22 µM (active)
same,IC50,[9],23.9 µM (active)
C/C=C/c1ccc2c(c1)[C@H]1[C@H](CCN1C(=O)c1ccc3c(c1)OCO3)[C@H](CO)N2,AC50,[14],6.34 µM (active)
C[C@H](CO)N1C[C@H](C)[C@@H](CN(C)C(=O)c2ccccc2F)Oc2ncc(C#Cc3ccccc3)cc2C1=O,AC50,[14],4.79 µM (active)
C[C@H]1CN([C@@H](C)CO)C(=O)c2c(c3ccccc3n2C)-c2ccccc2CO[C@@H]1CN(C)C(=O)Nc1cccc(F)c1,AC50,[14],5.29 µM (active)
